Key:
[1] = system: cultured primary astrocytes; conditions: cited from earlier work
[2] = system: mice subjected to neonatal HI injury; experiment: Object recognition test after neonatal HI injury, 3 days intranasal treatment; assay type: in vivo, mouse
Procedure: In the short-term study (3 days of intranasal treatment), 3 groups of WT mice were used; animals subjected to neonatal HI injury and treated with either C3a (HI-C3a, n=18) or PBS (HI-PBS, n=18) and sham-operated animals treated with PBS (SHAM-PBS, n=19). These mice were tested in an open field and object recognition test (ORT) at P50-P54 and brains were collected at P55 (FIG. 8A).
Neonatal HI injury was induced on postnatal day 9 (P9), as previously described with modifications for mice (Hedtjärn et al., 2002; Rice et al., 1981; Sheldon et al., 1998). Mice were anesthetized with 3.5% isoflurane (Baxter Medical, Kista, Sweden) for induction and 1.5% thereafter, in 1:1 oxygen and nitrous oxide. The left common carotid artery was dissected and permanently ligated with a prolene suture (6.0). The incision was closed and infiltrated with lidocaine (Xylocain®, Astra Zeneca, Gothenburg, Sweden). Mice were returned to the dam for 1 hour and then placed in a chamber with humidified air at 36° C. for 10 min, then exposed to humidified 10% oxygen in nitrogen for 30 min at 36° C., and then kept in humidified air at 36° C. for 10 min before being returned to the dam. Sham animals were subjected to an incision in the neck on P9. These pups were also removed from the dam for the time duration that injured animals stayed in the chamber, but remained instead in a warming tray at 36° C. under normal oxygen conditions. At postnatal day 21 (P21) mice were weaned and group housed with same sex littermates.
Purified human C3a (Complement Technology Inc., Tyler, Tex., USA) was diluted in sterile phosphate buffered saline (PBS) to a concentration of 200 nM, and a total of 8 μl i.e. […] (4 μl/nostril; corresponding to ca. 2.56 μg/kg body weight) of peptide solution or PBS was given intranasally to awake and hand-restrained mice held in a supine position. Solutions were administered through a pipette tip, drop-wise in 2 μl-portions divided by 1 min intervals to allow for absorption. […] C3a or PBS was given every 24 hours for three (short-term study) or seven (long-term study) days starting 1 h after HI induction, i.e. between P9 and P11 or P9 and P15, respectively. Mice in each litter were randomly assigned to C3a or PBS treatment. Sham animals received PBS. The investigators carrying out behavioural studies and analysing data were blinded to treatment group.
The object recognition test is based on the innate preference of mice to explore a novel object rather than a familiar one. Therefore, animals that remember the familiar object will spend more time exploring the novel object (Leger et al., 2013). From 3 days before starting the test, mice were daily handled for 2 min to minimize the possible stress due the researcher interaction. All experiments were performed at the same time of the day, between 9 am and […], and inside of a plastic box of 50×50×50 cm dimensions where the light intensity was dim and equal in all parts of the apparatus. […] Prior to the familiarization session, during which two identical objects were introduced, mice were habituated to the apparatus for 10 min during 3 consecutive days. Activity on the first habituation day was recorded as an open field test to assess locomotor and exploratory activities. During the familiarization session, two identical 250 ml bottles filled with shredded paper were placed at an equal distance from the arena walls (approximately 5 cm). […]

Substance: C3a: Purified human C3a peptide (Complement Technologies), C3a receptor agonist, amino acid sequence SEQ ID NO: 1
- ischemia-induced upregulation of GFAP ([1]; cultured primary astrocytes, C3aR-dependent): attenuated ischemia-induced upregulation of GFAP
- survival of astrocytes ([1]; in vitro ischemia model): increased the survival of astrocytes
- time exploring novel vs familiar object, long-term memory (24 h) ([2]; C3a treated mice p<0.05): significantly longer time exploring the novel compared to familiar object
- exploratory behavior in the familiarization phase ([2]; intranasal C3a 3 days from 1 h post-HI): not altered
- time exploring the novel object, short-term memory (6 h), vs PBS-treated mice post-HI ([2]; p<0.01): spent more time exploring the novel object
- total object exploration time, long-term memory (24 h), vs PBS ([2]; p<0.05): longer
- total object exploration time, short-term memory (6 h), vs PBS ([2]; p<0.05): longer total object exploration time
